Assay results taken from US20090074785A1, “Compositions and methods for treatment of colorectal cancer” (priority 2007, published 2009).

Key:
BAR (FXR, NR1H4) = target: T1, BAR (FXR, NR1H4) (Homo sapiens, UniProt Q96RI1); conditions: gene-selective BAR modulator; cited from earlier work
T1 sequence (Q96RI1 1-486): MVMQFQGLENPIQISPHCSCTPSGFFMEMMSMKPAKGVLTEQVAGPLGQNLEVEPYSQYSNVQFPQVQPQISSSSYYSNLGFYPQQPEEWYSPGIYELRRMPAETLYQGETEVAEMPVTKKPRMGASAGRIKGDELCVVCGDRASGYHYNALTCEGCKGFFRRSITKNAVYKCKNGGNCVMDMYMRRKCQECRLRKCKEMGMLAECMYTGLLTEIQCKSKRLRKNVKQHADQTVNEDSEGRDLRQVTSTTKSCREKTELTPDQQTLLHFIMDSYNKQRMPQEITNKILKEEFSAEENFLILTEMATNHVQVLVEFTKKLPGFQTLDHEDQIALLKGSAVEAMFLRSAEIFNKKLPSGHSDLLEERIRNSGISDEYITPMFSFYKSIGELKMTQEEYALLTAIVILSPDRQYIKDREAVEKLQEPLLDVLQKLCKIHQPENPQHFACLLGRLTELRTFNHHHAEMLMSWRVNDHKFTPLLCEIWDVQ

IBABP-L promoter = IBABP-L promoter luciferase reporter in HCT 116 cells; format: cell-based, human; conditions: 25 ng/ml for 5 hr, HCT116 cells
Description: To verify that NF-κB binds the response element and drives the expression of IBABP-L, a number of studies were performed with deletions and mutations of the promoter linked to a reporter gene (PGL3-Basic Luciferase), as shown in FIG. 18. These studies were performed in HCT 116 colon cancer cells, which have elevated expression of IBABP-L. The region containing the putative NF-κB binding motif (−1563/+78) was amplified from human genomic DNA by PCR. Deletion constructs of this promoter were made through PCR or restriction enzyme digestion. The G C mutation was made through site-directed mutagenesis. The wild type and modified promoters were inserted into PGL3 vector containing firefly Luciferase (Luc) reporter (Promega). Reporter vectors were constructed to either delete the entire putative NF-κB binding motif, or mutate the most conserved “G” to “C” within this motif. The wild type promoter and modified reporters were introduced into HCT 116 cells, and luciferase activity was analyzed at 24 hr.
As shown in FIGS. 19A-C, a functional analysis of the IBABP-L promoter was performed. […] The luciferase activity was measured in 24 h and normalized to the Renilla signal in the absence of the IBABP-L promoter. […] Luciferase activity was measured in 24 hr and normalized. pRL-CMV was included in every transfection. […]

IBABP-L = test: Regulation of expression of IBABP-L in Caco-2 cells, quantitative RT-PCR; format: cell-based, human; conditions: 24 h
Description: (§1) The expression of IBABP-L and IBABP was measured by quantitative RT-PCR. The mRNA copy number of each variant is normalized to the expression the housekeeping gene ARPP0. Values in the figure represent the average of three experiments with each replicate performed in duplicate.
(§2) To determine the relative expression levels of IBABP-L and IBABP, a two-step quantitative RT-PCR procedure was used. In the first step, complementary DNA (cDNA) was synthesized from total RNA. […] In the second step, quantitative PCR (QPCR) was carried out on a Mx 3000P Real-Time PCR System (Stratagene, La Jolla, Calif.) using a solution containing diluted cDNA (1:20; 2.0 μl), 1×SYBR Green PCR Master Mix (Applied Biosystems, Foster City, Calif.), and primers for IBABP-L, IBABP, or ARPP0 (0.25 μM). […]
(§3) Regulation of expression of the IBABP variants in Caco-2 cells. […] Cells were harvested, cellular RNA was isolated using the RNeasy Mini Kit (Qiagen) according to manufacturer instruction, and expression of IBABP variants was determined by QPCR as described above.
(§4) Bile acids differentially regulate the variants of IBABP. […] Caco-2 cells were treated with either chenodeoxycholic acid (CDCA), deoxycholic acid (DCA), or 9cRA, and the relative expression of transcripts encoding IBABP-L and IBABP was measured by quantitative RT-PCR (FIG. 10).

IBABP = test: Regulation of expression of IBABP in Caco-2 cells, quantitative RT-PCR; format: cell-based, human; conditions: 100 nM, 24 h
Description: as §1, §2, §3, §4

## CCCCCCOc1c(\C(C)=C/C=C/C(C)=C/C(=O)O)cc(C(C)C)cc1C(C)C [AGN34]
BAR (FXR, NR1H4)
  activity on CYP7A1: agonist
  activity on IBABP: antagonist
  activity on SHP: neutral

## tumor necrosis factor α [TNFα]
IBABP-L promoter
  transcription activity of the wild type IBABP-L promoter: increased
IBABP-L promoter; G to C mutation in NF-κB motif
  transcription activity of the mutated IBABP-L promoter: not the mutated promoter

## C[C@H](CCC(=O)O)[C@H]1CC[C@H]2[C@@H]3[C@H](O)C[C@@H]4C[C@H](O)CC[C@]4(C)[C@H]3CC[C@]12C [CDCA, chenodeoxycholic acid]
IBABP-L; 100 μM, normalized to ARPP0
  effect on expression of IBABP-L: without effect

## CC1=C(/C=C/C(C)=C\C=C\C(C)=C\C(=O)O)C(C)(C)CCC1 [9cRA, 9-cis-retinoic acid]
IBABP
  effect on expression of IBABP: up-regulated
IBABP-L; 100 nM
  effect on expression of IBABP-L: without effect
